In publication PMC9775433 (Cancers, 2022):
Several values for one entry are separate records, joined by “and”; a condition that tells them apart may be missing. Identical values can stand only once.

What was measured:
[1] = Plasma pharmacokinetics of high-dose intermittent sunitinib (LC-MS-MS, NONMEM); type: in vivo, human; conditions: human, plasma, oral, Cmax plasma - Sunitinib concentration, individual patient
Procedure: Study pharmacokinetic assessment in plasma: Ethylenediaminetetraacetic acid (EDTA) blood was collected pretreatment and subsequently at multiple time points in all patients (0, 2, 4, 6, 8, 10, and 24 h post-dose on day 1 for both time schedules and thereafter at days 3, 8, 10, 15, 17, and 22 for the once weekly schedule and at days 3, 15, 17, and 29 for the once every 2 weeks schedule). All samples were centrifuged within 1 h after collection at 2000 g for 10 min (at 4 degrees Celsius (°C)), plasma was separated and stored at −80 °C until the day of analysis.
Since there is no evidence for the exact relationship between plasma and tumor concentrations, we chose to use the concentration–time data calculated by NONMEM for Cmax, the average concentration over time (Caverage) and the trough concentrations just before the next dose was administered (Ctrough) based on rich PK-data of each individual patient. […] Inter-occasion variability in bioavailability and absorption duration were allowed in the model. The control stream of the final model and the goodness-of-fit plots are supplied in the Supplementary Material (Supplementary Data S3). The developed model was used to derive the individual predictions for the Cmax, Caverage, and Ctrough. SUM concentrations were calculated.
(§1) Supplementary data S2 – Methods (Details)
(§2) samples; using a validated liquid chromatography–tandem mass spectrometry (LC-MS-MS).
(§3) The system consisted of an Acquity H‐Class UPLC system, coupled to a Xevo TQ‐S micro
(§4) tandem mass spectrometer. […]

[2] = test system: TEX264; parameters: method as in earlier work; conditions: cited from earlier work
[3] = Tumor drug concentration in tumor needle biopsy at day 17 (LC-MS-MS); type: in vivo, human; conditions: individual patient; for concentration at 17 day: human, tumor, oral, Tumor - Sunitinib concentration
Procedure: All tissue samples were immediately snap frozen (within 1 min) in liquid nitrogen and cryopreserved at −80 °C until the day of analysis.
Tissue biopsies were weighed accurately before analysis. Tissue homogenate was prepared by using a mechanical homogenizer. The tumor tissue was homogenized with the precellys lysing kit (bertin instruments®) in the Roche MagNA lyzer®. […] Tissue homogenate samples were directly analyzed.
as §1, §2, §3, §4

[4] = test system: CD3; test: Immunohistochemistry of tumor biopsies, CD3 (T-cell infiltration); type: in vivo, human; conditions: 10 paired tumor biopsies
Procedure: Immunohistochemistry: Immunohistochemical staining was performed on 3–5 μm thick sections of the (freeze) tumor biopsies for CD3, CD31 and Ki67 according to standard methods (see Supplementary Data S2). Morphological characteristics were assessed in hematoxylin-eosin (H&E)-stained tissue sections. Evaluation of staining was performed by four investigators using light microscopy of serial tissue sections. […] Semi-quantification of CD31 staining was scored manually by a pathologist. The number of cells positive for CD3, CD31 was expressed as an estimated proportion of the total number of cells. […]
Finally, staining was
visualized with 3,3-diamino-benzidine-tetra hydrochloride (DAB), 0.3 mg/ml in 1 ml PBS
with 0.3 % H2O2. All slides were counterstained with hematoxylin.

- Cmax ([1]; 200 mg, 200 mg O1W): 239 ng/mL
- Cmax ([1]; 600 mg, 600 mg O2W): 190 ng/mL
- concentration at 17 day ([3]; 400 mg, 400 mg O2W): 987 ng/mL
- concentration at 17 day ([3]; 800 mg, 800 mg O2W): 228 ng/mL
SMILES: CCN(CC)CCNC(=O)c1c(C)[nH]c(/C=C2\C(=O)Nc3ccc(F)cc32)c1C [sunitinib]
- IC50 [2]: 990 nM
- Tumor - Sunitinib concentration ([3]; 300 mg O1W): 2373 µg/L and 19394 µg/L and 1332 µg/L and 2343 µg/L and 1738 µg/L and 9841 µg/L and 24517 µg/L and 25618 µg/L and 2008 µg/L and 18802 µg/L and 539 µg/L and 2318 µg/L
- Tumor - Sunitinib concentration ([3]; 700 mg O2W): 24802 µg/L and 2377 µg/L and 49083 µg/L and 16359 µg/L and 12244 µg/L and 8913 µg/L and 51914 µg/L and 2247 µg/L
- T cell infiltration (CD3 staining), mean increase ([4]; baseline versus day 17, 95% CI 1.15–5.95, p-Value 0.009): 3.55
- T cell infiltration (CD3 staining) after 17 days of treatment ([4]; baseline 8.6%): 12.2%
